Experimental data from PubChem BioAssay AID179 (DTP/NCI, 2004).
Where “and” joins values, the source holds several entries; their conditions need not be identical. Equal entries are not always repeated. Calls of active or inactive are those of the source.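 How the source made its calls: active means compounds giving half or more protection of infected cells from virus-caused growth loss, again on retest; inactive means the rest.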

Tested on: CEM cells HIV-1 protection, formazan growth assay
Assay: NCI AIDS Antiviral Assay
Details: for IC50: measured here: growth of uninfected CEM cells
Procedure, shortened: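 Human CEM cells, uninfected and HIV-1-infected, received five drug concentrations, and growth was read by soluble formazan assay. Compounds giving at least 50% protection were retested; reproducible 100% protection defined confirmed active.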

| Structure (SMILES) | EC50 [µM] | IC50 | outcome |
| --- | --- | --- | --- |
| COC(C(=O)C(O)C(C)O)C1Cc2cc3cc(OC4CC(OC(C)=O)C(OC5CC(O)C(OC)C(C)O5)C(C)O4)cc(O)c3c(O)c2C(=O)C1OC1CC(OC2CC(OC3CC(C)(O)C(OC(=O)C(C)C)C(C)O3)C(O)C(C)O2)C(O)C(C)O1 (configuration not stated) | > 2.09 | 0.0107 µM and 0.00389 µM | – |
| COc1cc(C2c3cc4c(cc3OC(O)C2C)OCO4)cc(OC)c1O (configuration not stated) | > 200 | 1.05 µM | – |
| N#Cc1nc(C(=O)c2ccccc2)oc1N | > 200 | > 200 µM | – |
| Cc1ccncc1.Cc1ccncc1.O=[N+]([O-])[O-].O=[N+]([O-])[O-].[Pt+2] | > 148 | 69.2 µM | – |
| Nc1ccc2c(c1)CC1c3ccccc3C(C2)c2ccccc21 | – | – | inactive |
| CN1CCN(c2[nH]c(=O)n(-c3ccccc3)c(=S)c2C#N)CC1 | > 200 | > 200 µM | – |
| CC(=O)NNc1nc(C)c(C(=O)NNC(=O)C(=O)Nc2ccc([N+](=O)[O-])cc2C#N)s1 | > 407 | 331 µM | – |
| COc1ccc(-n2[nH]c(=O)n(C)c2=O)cc1 | > 200 | > 200 µM | – |
| Ic1cc2c(cc1C1SCCCS1)OCO2 | > 251 | > 251 µM | – |
| Cc1ccc(S(=O)S(=O)c2ccc(C)cc2)cc1 (configuration not stated) | – | – | inactive |
| O=C1c2ccccc2C(=O)N1CCn1ccc(NC(c2ccccc2)(c2ccccc2)c2ccccc2)nc1=O | > 13.8 | > 13.8 µM | – |
| COC(=O)CN(CC(=O)OC)S(=O)(=O)c1ccc(-c2c3nc(c(-c4ccc(S(=O)(=O)N(CC(=O)OC)CC(=O)OC)cc4)c4ccc([nH]4)c(-c4ccc(S(=O)(=O)N(CC(=O)OC)CC(=O)OC)cc4)c4nc(c(-c5ccc(S(=O)(=O)N(CC(=O)OC)CC(=O)OC)cc5)c5ccc2[nH]5)C=C4)C=C3)cc1 | > 100 | > 100 µM | – |
| Cn1c2c(c3ccccc31)CCN(CCCN1CCN(c3cccc(Cl)c3)CC1)C2=O | > 16.6 | > 16.6 µM | – |
| COC(=O)c1c2c(cc3c1CC1(C3)Cc3cc4c(c(C(C)=O)c3C1)CCC4)C=CC2 (configuration not stated) | > 200 | > 200 µM | – |
| Cc1c(O)c(OC2OC(CO)C(O)C(O)C2O)cc2c1C=C[C@@H]1[C@@]2(C)C(=O)C[C@]2(C)[C@@H]([C@@](C)(O)C(O)/C=C/C(C)(C)O)[C@H](O)C[C@@]12C (some centres not stated) | > 200 | > 200 µM | – |
| CCCCCCCCCCCCCCCCCc1nnc(N)o1 | – | – | inactive |
| COc1csc([C@H]2CCC3[C@@H]4CC=C5C[C@@H](OC(C)=O)CC[C@]5(C)C4CC[C@@]32C)n1 (some centres not stated) | > 57.5 | > 57.5 µM | – |
| Cc1oc(N)c(C#N)c1C | – | – | inactive |
| CNC(=O)CN(CC(=O)NC)C(=O)NC | > 120 | > 120 µM | – |
| COC(=O)CNCc1cc(N(C)C)cc(CNCC(=O)OC)n1 | > 200 | > 200 µM | – |
| COc1ccc2c(c1)CCC(c1ccccc1)=C2c1ccc(OCCN2CCCC2)cc1 | > 200 | 3.72 µM | – |

| Structure (SMILES) | EC50 [µM] | IC50 | outcome |
| --- | --- | --- | --- |
| CC(=O)CCN1CC2CN=NC2(C#N)C1 (configuration not stated) | > 200 | 46.8 µM | – |
| CC(C)(C)C1=NO[C@H]2[C@@H](NC(=O)c3ccccc3)CC[C@@H]12 | > 871 | 302 µM | – |
| COC(=O)/C(=C/c1ccc(OC)cc1)C(C(=O)O)=C1CCCCC1 | > 398 | 5.62 µM | – |
| C=CCOC1CC(n2cnc3c(N)ncnc32)OC1CO (configuration not stated) | > 200 | > 200 µM | – |
| CCOC(=O)C(C)NC(=O)N(C)C12CC3CC(CC(C3)C1)C2 (configuration not stated) | > 200 | 151 µM | – |
| Cc1c(Cc2ccc(Cl)cc2)c(=O)[nH]c(=O)n1C | > 97.7 | > 97.7 µM | – |
| CC(=O)OC12CCCCC1C1(CCCC1)NC2=O (configuration not stated) | – | – | inactive |
| COC(=O)c1sc2c(SC#N)c3ccccn3c2c1C | – | – | inactive |
| O=c1c(Cl)nsnc1Cl | > 490 | 28.2 µM | – |
| CC1(C)C(=O)CCC(=O)C(C)(C)C2=CC=C(O2)C(C)(C)C(=O)CCC(=O)C(C)(C)C2=CC=C1O2 | – | – | inactive |
| O=C(Nc1ccc(C2=NCCN2)cc1)c1cccc(NC(=S)Nc2ccc(C3=NCCN3)cc2)c1 | 33.1 | 112 µM | – |
| O=C1C=CC=C/C1=C1/SC(c2ccccc2)=C(O)N1c1ccccc1 | – | – | inactive |
| NC(=O)C1c2ccccc2C=Cc2ccccc21 | > 200 | 155 µM | – |
| CSc1nc2c(c(=O)[nH]1)N=C(c1ccc(Cl)cc1)CC(c1ccccc1)N2 (configuration not stated) | > 200 | 33.1 µM | – |
| OC(Cc1cnnc2ccccc12)C(Cl)(Cl)Cl (configuration not stated) | > 200 | 70.8 µM | – |
| CCOC(=O)C(/C(=N\NC(=O)OC)C(=O)Nc1cc(OC)ccc1OC)c1cnc2ccccc2n1 (configuration not stated) | 81.3 | 138 µM | – |
| C[CH2][Ge]1([CH2]C)[CH2]CC2(CCN(CCCN(C)C)C2)C[CH2]1 | > 251 | 1.38 µM | – |
| COc1ccc(C(O)/C(=N\NC(N)=S)c2nc3ccc([N+](=O)[O-])cc3[nH]c2=O)cc1OC (configuration not stated) | > 288 | > 288 µM | – |
| CC(C)c1ccc2c(c1)CCC1C(C)(C)[C@@H](O)CC[C@]21C (some centres not stated) | > 66.1 | 37.2 µM | – |
| O=C(CCc1ccccc1)On1c(-c2ccccc2)nc2ccccc2c1=S | > 200 | 3.47 µM | – |
| O=C1C(C=NC(=S)c2ccccc2)=C(O)c2ccccc21 | > 200 | 166 µM | – |

| Structure (SMILES) | EC50 [µM] | IC50 | outcome |
| --- | --- | --- | --- |
| O=S(O)Cc1ccccc1CSSSCc1ccccc1CS(=O)O | > 200 | 102 µM | – |
| O=C1N[C@@H]2c3c(Br)sc(Br)c3C(=O)[C@@H]2O1 | > 200 | 0.759 µM | – |
| CC(C)(C)SSCC(N)C(=O)O (configuration not stated) | > 200 | > 200 µM | – |
| CCOC(=O)CN=C1NNS(=O)(=O)c2ccccc21 | > 200 | 110 µM | – |
| Brc1ccccc2cc(-c3ccccc3)nc1-2 | – | – | inactive |
| COC(=O)c1c2c(cc3c1CC1(Cc4cc5c(c(C(C)=O)c4C1)CCC5)C3)CCC2 (configuration not stated) | > 6.46 | > 6.46 µM | – |
| COc1cc2nncc(SCc3ccccc3)c2cc1OC | > 85.1 | > 85.1 µM | – |
| [O-][n+]1c2ccccc2cc2c1c1ccccc1n2O | > 20.9 | > 20.9 µM | – |
| CC(=NNC(=S)Nc1ccccc1)c1cccc(C(C)=NNC(=S)Nc2ccccc2)n1 | > 200 | 9.33 µM | – |
| CCN(CC)C1=NS(=O)(=O)c2ccccc2C(SC)=C1C | > 275 | > 275 µM | – |
| N#CCCC/C(=N\O)C(=O)OCc1ccccc1 | > 200 | > 200 µM | – |
| CCCCCCCCCCCCCCCCCCN1C(=O)c2ccccc2[Se]1=O (configuration not stated) | > 0.813 | > 0.813 µM | – |
| Cc1nc(-c2ccccc2)cc2c1c(=O)oc1ccccc12 | > 5.01 | > 5.01 µM | – |
| Cc1cc(S(=O)(=O)NC2=NCc3nc4ccccc4n32)c(S)cc1Cl | > 200 | 35.5 µM | – |
| O=C1CCC(c2nc3cc(Cl)ccc3o2)C(=O)N1 (configuration not stated) | > 245 | > 245 µM | – |
| CN(C)C(C(N)=O)c1ccccc1 (configuration not stated) | > 200 | > 200 µM | – |
| COC(=O)[C@H](Cc1ccccc1)NC(=O)N1CCN(C(=O)N[C@@H](Cc2ccccc2)C(=O)OC)CCN(C(=O)N[C@@H](Cc2ccccc2)C(=O)OC)CC1 | > 200 | > 200 µM | – |
| c1ccc2c3c([nH]c2c1)C1CCCN1CC3 (configuration not stated) | > 617 | 174 µM | – |
| O=C(O)c1cc(O)c(O)c(O)c1 | > 200 | 11 µM | – |
| COc1ccc(/C=C2/SC(=Nc3ccccc3)N(NC(=O)Cc3ccccc3)C2=O)cc1 | > 214 | 148 µM | – |
| Cc1nn2c(C(=O)O)nnc2s1 | > 200 | > 200 µM | – |
